ChEMBL document CHEMBL1201862, “PubChem BioAssay data set” (2004)
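Five compound concentrations were applied to cells in 96-well plates for 48 hours; endpoints were derived by simple linear interpolation of the resulting dose-response curve. GI50 marks 50% less growth.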 The source made the active and inactive calls. No stated cut-off is given here; in the data, active = GI50 up to about 1.1 µM and inactive = higher.

Legend:
Test in all cases: NCI tumour cell line growth inhibition, 48 h
[1] = test system: 786-0
[2] = test system: A498
[3] = test system: A549
[4] = test system: ACHN
[5] = test system: CAKI-1
[6] = test system: DLD-1
[7] = test system: DMS-114
[8] = test system: DMS-273
[9] = test system: EKVX
[10] = test system: HCC 2998
[11] = test system: HCT-116
[12] = test system: HCT-15
[13] = test system: HOP-62
[14] = test system: HT-29
[15] = test system: IGROV-1
[16] = test system: K562
[17] = test system: KM-20L2
[18] = test system: KM12
[19] = test system: LOX IMVI
[20] = test system: LXFL 529
[21] = test system: M14
[22] = test system: M19-MEL
[23] = test system: MOLT-4
[24] = test system: Malme-3M
[25] = test system: NCI-H226
[26] = test system: NCI-H460
[27] = test system: NCI-H522
[28] = test system: OVCAR-3
[29] = test system: OVCAR-4
[30] = test system: OVCAR-5
[31] = test system: OVCAR-8
[32] = test system: RPMI-8226
[33] = test system: RXF 393
[34] = test system: SF-268
[35] = test system: SF-295
[36] = test system: SF-539
[37] = test system: SK-MEL-28
[38] = test system: SK-MEL-2
[39] = test system: SK-MEL-5
[40] = test system: SK-OV-3
[41] = test system: SN12C
[42] = test system: SNB-19
[43] = test system: SNB-75
[44] = test system: SR
[45] = test system: SW-620
[46] = test system: U-251
[47] = test system: UACC-257
[48] = test system: UACC-62
[49] = test system: UO-31
[50] = test system: XF498
[51] = test system: BT-549
[52] = test system: CCRF-CEM
[53] = test system: COLO 205
[54] = test system: HOP-18
[55] = test system: Hs-578T
[56] = test system: MDA-MB-435
[57] = test system: MDA-N
[58] = test system: NCI-H23
[59] = test system: NCI/ADR-RES
[60] = test system: PC-3
[61] = test system: SNB-78
[62] = test system: TK-10
[63] = test system: DU-145
[64] = test system: HL-60
[65] = test system: HOP-92
[66] = test system: MCF7
[67] = test system: MDA-MB-231
[68] = test system: T47D

Measured: GI50

CCOC(=O)C1=C(C)N(NC(N)=O)C2(N)N(NC(N)=O)C(C)=C(C(=O)OCC)C12C(=O)OCC (stereo unspecified)
inactive: [1] > 100 µM | [2] > 100 µM | [3] > 100 µM | [4] > 100 µM | [5] > 100 µM | [6] > 100 µM | [7] > 100 µM | [8] > 100 µM | [9] > 100 µM | [10] > 100 µM | [11] > 100 µM | [13] > 100 µM | [14] > 100 µM | [15] > 100 µM | [16] > 100 µM | [17] > 100 µM | [18] > 100 µM | [19] > 100 µM | [20] > 100 µM | [21] > 100 µM | [22] > 100 µM | [23] > 100 µM | [24] > 100 µM | [25] > 100 µM | [26] > 100 µM | [27] > 100 µM | [28] > 100 µM | [29] > 100 µM | [30] > 100 µM | [31] > 100 µM | [32] > 100 µM | [33] > 100 µM | [34] > 100 µM | [35] > 100 µM | [36] > 100 µM | [37] > 100 µM | [38] > 100 µM | [39] > 100 µM | [40] > 100 µM | [41] > 100 µM | [42] > 100 µM | [43] 47.8 µM | [44] > 100 µM | [45] > 100 µM | [46] > 100 µM | [47] > 100 µM | [48] > 100 µM | [49] > 100 µM | [50] > 100 µM
> 100 µM: [12]

CO[C@H]1C[C@@H]2CC[C@@H](C)[C@@](O)(O2)C(=O)C(=O)N2CCCC[C@H]2C(=O)O[C@H]([C@H](C)C[C@@H]2CC[C@@H](O)[C@H](OC)C2)CC(=O)[C@H](C)C=C(C)[C@@H](O)[C@@H](OC)C(=O)[C@H](C)C[C@H](C)/C=C/C=C/C=C1C
0.117 µM: [12]
inactive: [51] 1.12 µM | [53] 8.24 µM | [6] 10 µM | [8] 11 µM | [11] 5.71 µM | [54] 11.8 µM | [17] 16 µM | [18] 5.96 µM | [21] 7.55 µM | [56] 1.28 µM | [57] 1.56 µM | [27] 1.34 µM | [34] 1.77 µM
active: [1] 0.108 µM | [52] < 0.01 µM | [7] 0.1 µM | [9] < 0.0104 µM | [10] 0.167 µM | [13] < 0.0107 µM | [14] 0.817 µM | [55] 0.0193 µM | [15] < 0.01 µM | [19] 0.0175 µM | [22] 0.1 µM | [23] 0.0272 µM | [24] 0.0243 µM | [58] 0.394 µM | [59] 0.358 µM | [29] < 0.01 µM | [31] 0.0564 µM | [60] 0.0211 µM | [36] < 0.0111 µM | [37] 0.251 µM | [39] 0.417 µM | [61] 0.1 µM | [44] < 0.01 µM | [62] 0.46 µM | [49] < 0.01 µM

Cc1ccc(C(=O)NCc2ccccc2)cc1/N=N/N(C)C
inactive: [1] > 100 µM | [3] > 77.8 µM | [4] > 75.3 µM | [51] > 100 µM | [5] > 100 µM | [52] 87.7 µM | [53] > 100 µM | [6] > 100 µM | [8] > 100 µM | [63] > 100 µM | [9] > 100 µM | [10] > 100 µM | [11] > 72.1 µM | [64] 37.2 µM | [13] > 100 µM | [65] 65 µM | [14] > 58.7 µM | [55] > 100 µM | [15] > 100 µM | [16] > 100 µM | [17] 65.9 µM | [18] 64.4 µM | [19] 58.1 µM | [20] 47.5 µM | [21] > 100 µM | [22] > 100 µM | [66] > 100 µM | [67] > 100 µM | [56] > 100 µM | [57] > 100 µM | [23] 56.8 µM | [24] > 100 µM | [25] > 100 µM | [58] > 100 µM | [26] > 100 µM | [27] 27.7 µM | [59] 86.3 µM | [28] 44.3 µM | [29] > 76.2 µM | [30] > 100 µM | [31] > 100 µM | [60] 71.3 µM | [32] 40.9 µM | [34] > 62.5 µM | [35] > 71.9 µM | [36] > 100 µM | [37] > 96.6 µM | [38] > 100 µM | [39] > 74.3 µM | [40] > 100 µM | [41] > 100 µM | [42] > 100 µM | [61] > 100 µM | [44] 60 µM | [45] > 100 µM | [68] 39.7 µM | [62] > 100 µM | [46] > 100 µM | [47] 21.4 µM | [48] > 100 µM | [49] > 31.5 µM
> 83 µM: [12]
